# Data from patent publication US7439041B2 (Novartis Vaccines and Diagnostics, Inc., priority 2003, dated 2008).
# Target: T1, PrP^Sc (Mus musculus, UniProt P04925)
# Assay type: binding
# Design: key to Western Blot: −: Visually evaluated relative signal intensity; +/−: Visually evaluated relative signal intensity; +: Visually evaluated relative signal intensity; ++: Visually evaluated relative signal intensity; +++: Visually evaluated relative signal intensity; ++++: Visually evaluated relative signal intensity; +++++: Visually evaluated relative signal intensity
Substance,Western Blot,"binding to PrPSc in infected mouse brain homogenate samples (Western blot, FIG. 4)"
RPMIHFGNDWEDRYYRENMYR(GGG) [SEQ ID NO: 44],−,
DDDAGAAAAGAVVGGLGGYMLGSAMDDD [SEQ ID NO: 86],−,
(GGG)KKRPKPGGWNTGG [SEQ ID NO: 67],++,
GGTHNQWNKPSKPKTN [SEQ ID NO: 54],+,
(GGG)KKAPKPGG [SEQ ID NO: 106],+,
(GGG)KKRPAPGG [SEQ ID NO: 107],+,
(GGG)KARPKPGG [SEQ ID NO: 105],+,
GGWGQGGGTHNQWNKPSKPKTNLKHV(GGGG) [SEQ ID NO: 37],+,
(KKK)AGAAAAGAVVGGLGGYMLGSAM [SEQ ID NO: 57],+,
(GGG)KKRPKPGGWNTGGSRYPGQGS [SEQ ID NO: 66],+,
DKDKGGVGALAGAAVAAGGDKDK [SEQ ID NO: 88],−,
(GGG)KKKKKKKK (GGGKKKKKKKK) [SEQ ID NO: 85],+^3,
(GGG)QWNKASKAKTN [SEQ ID NO: 95],−,
KKKAGAAAAGAVVGGLGGYMLGSAMDDD [SEQ ID NO: 82],−,
QWNKPSKPKTN(GGG) [SEQ ID NO: 50],+,
(GGG)GPKRKGPK [SEQ ID NO: 73],+,
(GGG)QANKPSKPKTN [SEQ ID NO: 89],+ and +++,
(GGG)KKRAKAGG [SEQ ID NO: 98],+,
(GGG)KKRPKPGG [SEQ ID NO: 68],+++,strong binding
(GGG)QWNKPSAPKTN [SEQ ID NO: 93],− and +,
(GGG)KKRPKPGGGQWNKPSKPKTN [SEQ ID NO: 81],+,
(GGG)QWNKPSKPATN [SEQ ID NO: 94],− and +,
(GGGG)C(GG)GGWGQGGGTHNQWNKPSKPKTNLKHV(GGGG)C [SEQ ID NO: 35],+,
(GGG)KKRPKAGG [SEQ ID NO: 97],+ and ++,
QWNKPSKPKTN(GGG)QWNKPSKPKTN [SEQ ID NO: 51],+++,

Substance,Western Blot,"binding to PrPSc in infected mouse brain homogenate samples (Western blot, FIG. 4)"
(GGG)QWNKASKPKTN [SEQ ID NO: 99],+/−,
(GGG)KPSKPK [SEQ ID NO: 80],−,
(GGGG)GGWGQGGGTHNQWNKPSKPKTNLKHV [SEQ ID NO: 36],+,
(GGG)QWNAPSKPKTN [SEQ ID NO: 92],− and +,
DDDAGAAAAGAVVGGLGGYMLGSAM [SEQ ID NO: 83],−,
(GGG)NKPSKPK [SEQ ID NO: 79],−,
(GGG)KKRPKPGGGKKRPKPGG [SEQ ID NO: 72],+,
(GG)C(GGG)RPMIHFGNDWEDRYYRENMYR(GGG)C [SEQ ID NO: 46],+,
(GGG)NNKQSPWPTKK [SEQ ID NO: 87],−,
PHGGGWGQPHGGSWGQ [SEQ ID NO: 70],−,
(GGG)KKRAKPGG [SEQ ID NO: 96],+ and ++,
C(GG)GGWGQGGGTHNQWNKPSKPKTNLKHV(GGGG)C [SEQ ID NO: 40],+,
(GGG)WNKPSKPKT [SEQ ID NO: 75],−,
(KKK)AGAAAAGAVVGGLGG [SEQ ID NO: 65],++,
PHGGGWGQ [SEQ ID NO: 71],−,
GGWGQGGGTHNQWNKPSKPKTN [SEQ ID NO: 53],+,
(GGG)AKRPKPGG [SEQ ID NO: 104],+,
QWNKPSKPKTNLKHV(GGG) [SEQ ID NO: 77],++,
(GGG)KKAPKAGG [SEQ ID NO: 108],+,
PHGGGWGQHGGSWGQPHGGSWGQ [SEQ ID NO: 69],−,
(GGG)QWNKASKPKTN [SEQ ID NO: 90],−,
(GGG)QWNKPSKPKTN [SEQ ID NO: 14],+++,
(GGG)QWNKPSKAKTN [SEQ ID NO: 91],− and +,
(GGG)RPMIHFGNDWEDRYYRENMYR(GG)C [SEQ ID NO: 76],−,
KKKAGAAAAGAVVGGLGGYMLGSAMKKK [SEQ ID NO: 84],+,

# Target: T1, PrP^Sc
# Assay type: binding
# Remark: another data set of the same source
# Target sequence in this assay (P04925 23-230 limits assumed): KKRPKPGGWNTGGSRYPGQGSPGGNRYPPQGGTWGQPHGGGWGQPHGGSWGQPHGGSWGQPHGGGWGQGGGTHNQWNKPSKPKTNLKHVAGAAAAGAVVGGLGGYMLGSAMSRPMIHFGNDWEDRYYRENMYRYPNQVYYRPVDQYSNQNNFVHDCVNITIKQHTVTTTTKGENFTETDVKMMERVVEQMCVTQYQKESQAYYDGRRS
row,Substance,ELISA A405nm
1,QWNKPSKPKTN(GGG)QWNKPSKPKTN [SEQ ID NO: 51],.923
